≈ marks a conversion by molar mass, not a printed value. Non-standard residues stand in square brackets, D forms with d. Residues, ends and D or L forms follow the SMILES beside them. Dip = N[C@H](C(=O)O)C(c1ccccc1)c1ccccc1; 2Nal = N[C@@H](Cc1ccc2ccccc2c1)C(=O)O; d2Nal = N[C@H](Cc1ccc2ccccc2c1)C(=O)O; Dab = NCC[C@H](N)C(=O)O
Experiments:
[1] = system: Methicillin-resistant Staphylococcus aureus MRSA (ATCC BAA-1556); conditions: ATCC BAA-1556
S. aureus ATCC 29213 = conditions: ATCC 29213
[2] = system: Pseudomonas aeruginosa (ATCC 27883); conditions: ATCC 27883
[3] = system: Escherichia coli (ATCC 25922); conditions: ATCC 25922
human red blood cells = system: human red blood cells; parameters: unit not given beside the values

| MIC MRSA ATCC BAA-1556 [1] [µg/mL] | MIC S. aureus ATCC 29213 (S. aureus ATCC 29213) [µg/mL] | MIC P. aeruginosa ATCC 27883 [2] [µg/mL] | MIC E. coli ATCC 25922 [3] [µg/mL] | HC50 (human red blood cells) | Compound |
| --- | --- | --- | --- | --- | --- |
| 6.2 (≈ 4.53 µM) | 6.2 (≈ 4.53 µM) | 25 (≈ 18.3 µM) | 12.5 (≈ 9.13 µM) | 95 | N=C(N)NCCC[C@@H]1NC(=O)[C@@H](CCCNC(=N)N)NC(=O)[C@H](CCCNC(=N)N)NC(=O)[C@@H](Cc2c[nH]c3ccccc23)NC(=O)[C@H](Cc2c[nH]c3ccccc23)NC(=O)[C@@H](Cc2c[nH]c3ccccc23)NC(=O)[C@H](Cc2c[nH]c3ccccc23)NC(=O)[C@@H](CCCNC(=N)N)NC1=O [IFX-033, c[Arg-arg-Arg-arg-Trp-trp-Trp-trp]] (cyclo(R[dR]R[dR]W[dW]W[dW])) |
| 6.2 (≈ 4.06 µM) | 3.1 (≈ 2.03 µM) | 25 (≈ 16.4 µM) | 12.5 (≈ 8.19 µM) | 670 | N=C(N)NCCC[C@H]1NC(=O)[C@@H](CCCNC(=N)N)NC(=O)[C@@H](CCCNC(=N)N)NC(=O)[C@@H](Cc2c[nH]c3ccccc23)NC(=O)[C@@H](Cc2c[nH]c3ccccc23)NC(=O)[C@@H](Cc2c[nH]c3ccccc23)NC(=O)[C@@H](Cc2c[nH]c3ccccc23)NC(=O)[C@@H](CCCNC(=N)N)NC(=O)[C@@H](CCCNC(=N)N)NC1=O [IFX-037, c[arg-arg-arg-arg-arg-trp-trp-trp-trp]] |
| 6.2 (≈ 4.53 µM) | 6.2 (≈ 4.53 µM) | 25 (≈ 18.3 µM) | 25 (≈ 18.3 µM) | 230 | N=C(N)NCCC[C@H]1NC(=O)[C@@H](CCCNC(=N)N)NC(=O)[C@@H](CCCNC(=N)N)NC(=O)[C@@H](Cc2c[nH]c3ccccc23)NC(=O)[C@@H](Cc2c[nH]c3ccccc23)NC(=O)[C@@H](Cc2c[nH]c3ccccc23)NC(=O)[C@@H](Cc2c[nH]c3ccccc23)NC(=O)[C@@H](CCCNC(=N)N)NC1=O [IFX-032, c[arg-arg-arg-arg-trp-trp-trp-trp]] (cyclo([dR][dR][dR][dR][dW][dW][dW][dW])) |
| 64 (≈ 49 µM) | 32 (≈ 24.5 µM) | 64 (≈ 49 µM) | 32 (≈ 24.5 µM) | 620 | N=C(N)NCCC[C@@H]1NC(=O)[C@@H](CCCNC(=N)N)NC(=O)[C@H](CCCNC(=N)N)NC(=O)[C@@H](Cc2ccc3ccccc3c2)NC(=O)[C@@H](Cc2ccc3ccccc3c2)NC(=O)[C@H](Cc2c[nH]c3ccccc23)NC(=O)[C@H](CCN)NC(=O)[C@@H](CCCNC(=N)N)NC1=O [IFX-054, c[Arg-arg-Arg-arg-Dab-Trp-naI-naI]] (cyclo([Dab]W[d2Nal][d2Nal]R[dR]R[dR])) |
| 6.2 (≈ 4.39 µM) | 3.1 (≈ 2.19 µM) | 50 (≈ 35.4 µM) | 25 (≈ 17.7 µM) | 120 | N=C(N)NCCC[C@@H]1NC(=O)[C@H](CCCNC(=N)N)NC(=O)[C@H](CCCNC(=N)N)NC(=O)[C@H](Cc2ccc3ccccc3c2)NC(=O)[C@H](Cc2ccc3ccccc3c2)NC(=O)[C@H](Cc2ccc3ccccc3c2)NC(=O)[C@H](Cc2ccc3ccccc3c2)NC(=O)[C@H](CCCNC(=N)N)NC1=O [IFX-006, c[Arg-Arg-Arg-Arg-NaI-NaI-NaI-NaI]] (cyclo([2Nal][2Nal][2Nal][2Nal]RRRR)) |
| 6.2 (≈ 5.85 µM) | 3.1 (≈ 2.92 µM) | 50 (≈ 47.2 µM) | 25 (≈ 23.6 µM) | 240 | N=C(N)NCCC[C@@H]1NC(=O)[C@H](CCCNC(=N)N)NC(=O)[C@H](Cc2ccc3ccccc3c2)NC(=O)[C@H](Cc2ccc3ccccc3c2)NC(=O)[C@H](Cc2ccc3ccccc3c2)NC(=O)[C@H](CCCNC(=N)N)NC1=O [IFX-003, c[Arg-Arg-Arg-NaI-NaI-NaI]] (cyclo([2Nal][2Nal][2Nal]RRR)) |

Further lines, the compound ahead of its results:

| Compound | MIC MRSA ATCC BAA-1556 [1] [µg/mL] | MIC S. aureus ATCC 29213 (S. aureus ATCC 29213) [µg/mL] | MIC P. aeruginosa ATCC 27883 [2] [µg/mL] | MIC E. coli ATCC 25922 [3] [µg/mL] | HC50 (human red blood cells) |
| --- | --- | --- | --- | --- | --- |
| N=C(N)NCCC[C@H](NC(=O)[C@H](CCCNC(=N)N)NC(=O)[C@@H](N)CCCNC(=N)N)C(=O)N[C@@H](Cc1c[nH]c2ccccc12)C(=O)N[C@H](C(=O)N[C@H](C(=O)O)C(c1ccccc1)c1ccccc1)C(c1ccccc1)c1ccccc1 [IFX-020-1, NH2-R-R-R-Trp-Dip-Dip-OH] (H-RRRW[Dip][Dip]-OH) | 6.2 (≈ 5.54 µM) | 6.2 (≈ 5.54 µM) | 25 (≈ 22.3 µM) | 6.2 (≈ 5.54 µM) | 310 |
| N=C(N)NCCC[C@H](NC(=O)[C@H](Cc1ccc2ccccc2c1)NC(=O)[C@H](Cc1ccc2ccccc2c1)NC(=O)[C@H](CCCNC(=N)N)NC(=O)[C@H](CCCNC(=N)N)NC(=O)[C@H](Cc1ccc2ccccc2c1)NC(=O)[C@@H](N)CCCNC(=N)N)C(=O)O [IFX-018-1, NH2-Arg-NaI-Arg-Arg-NaI-NaI-Arg-OH] (H-R[2Nal]RR[2Nal][2Nal]R-OH) | 25 (≈ 20.3 µM) | 12.5 (≈ 10.1 µM) | 50 (≈ 40.5 µM) | 25 (≈ 20.3 µM) | 405 |
| N=C(N)NCCC[C@H](NC(=O)[C@H](CCCNC(=N)N)NC(=O)[C@H](CCCNC(=N)N)NC(=O)[C@@H](N)CCCNC(=N)N)C(=O)N[C@@H](Cc1ccc2ccccc2c1)C(=O)N[C@@H](Cc1ccc2ccccc2c1)C(=O)N[C@@H](Cc1ccc2ccccc2c1)C(=O)O [IFX-009-1, NH2-Arg-Arg-Arg-Arg-NaI-NaI-NaI-OH] (H-RRRR[2Nal][2Nal][2Nal]-OH) | 3.1 (≈ 2.51 µM) | 3.1 (≈ 2.51 µM) | 12.5 (≈ 10.1 µM) | 12.5 (≈ 10.1 µM) | 260 |
| N=C(N)NCCC[C@H](NC(=O)[C@H](CCCNC(=N)N)NC(=O)[C@@H](N)CCCNC(=N)N)C(=O)N[C@H](C(=O)N[C@@H](Cc1c[nH]c2ccccc12)C(=O)N[C@H](C(=O)O)C(c1ccccc1)c1ccccc1)C(c1ccccc1)c1ccccc1 [IFX-021-1, NH2-R-R-R-Dip-Trp-Dip-OH] (H-RRR[Dip]W[Dip]-OH) | 6.2 (≈ 5.54 µM) | 6.2 (≈ 5.54 µM) | 50 (≈ 44.7 µM) | 12.5 (≈ 11.2 µM) | 325 |
| N=C(N)NCCC[C@H](NC(=O)[C@H](CCCNC(=N)N)NC(=O)[C@@H](N)CCCNC(=N)N)C(=O)N[C@@H](CCCNC(=N)N)C(=O)N[C@H](C(=O)N[C@H](C(=O)O)C(c1ccccc1)c1ccccc1)C(c1ccccc1)c1ccccc1 [IFX-010-1, NH2-Arg-Arg-Arg-Arg-Dip-Dip-OH] (H-RRRR[Dip][Dip]-OH) | 12.5 (≈ 11.5 µM) | 12.5 (≈ 11.5 µM) | 50 (≈ 45.9 µM) | 50 (≈ 45.9 µM) | 360 |
| N=C(N)NCCC[C@H](NC(=O)[C@H](CCCNC(=N)N)NC(=O)[C@H](CCCNC(=N)N)NC(=O)[C@@H](N)CCCNC(=N)N)C(=O)N[C@@H](Cc1ccc2ccccc2c1)C(=O)N[C@@H](Cc1ccc2ccccc2c1)C(=O)O [IFX-011-1, NH2-Arg-Arg-Arg-Arg-NaI-NaI-OH] (H-RRRR[2Nal][2Nal]-OH) | 6.2 (≈ 5.98 µM) | 6.2 (≈ 5.98 µM) | >100 | 50 (≈ 48.2 µM) | 310 |
| N=C(N)NCCC[C@H](NC(=O)[C@H](CCCNC(=N)N)NC(=O)[C@H](Cc1ccc2ccccc2c1)NC(=O)[C@H](Cc1ccc2ccccc2c1)NC(=O)[C@H](CCCNC(=N)N)NC(=O)[C@@H](N)CCCNC(=N)N)C(=O)N[C@@H](Cc1ccc2ccccc2c1)C(=O)O [IFX-019-1, NH2-Arg-Arg-NaI-NaI-Arg-Arg-NaI-OH] (H-RR[2Nal][2Nal]RR[2Nal]-OH) | 25 (≈ 20.3 µM) | 12.5 (≈ 10.1 µM) | 25 (≈ 20.3 µM) | 25 (≈ 20.3 µM) | 395 |
| N=C(N)NCCC[C@H](NC(=O)[C@H](CCCNC(=N)N)NC(=O)[C@@H](N)CCCNC(=N)N)C(=O)N[C@@H](Cc1ccc2ccccc2c1)C(=O)N[C@@H](Cc1c[nH]c2ccccc12)C(=O)N[C@@H](Cc1ccc2ccccc2c1)C(=O)O [IFX-024-1, NH2-R-R-R-NaI-Trp-NaI-OH] (H-RRR[2Nal]W[2Nal]-OH) | 6.2 (≈ 5.81 µM) | 6.2 (≈ 5.81 µM) | 25 (≈ 23.4 µM) | 12.5 (≈ 11.7 µM) | 410 |
| N=C(N)NCCC[C@H](NC(=O)[C@H](CCCNC(=N)N)NC(=O)[C@@H](N)CCCNC(=N)N)C(=O)N[C@@H](CCCNC(=N)N)C(=O)N[C@H](C(=O)N[C@H](C(=O)N[C@H](C(=O)O)C(c1ccccc1)c1ccccc1)C(c1ccccc1)c1ccccc1)C(c1ccccc1)c1ccccc1 [IFX-008-1, NH2-Arg-Arg-Arg-Arg-Dip-Dip-Dip-OH] (H-RRRR[Dip][Dip][Dip]-OH) | 3.1 (≈ 2.36 µM) | 3.1 (≈ 2.36 µM) | 6.2 (≈ 4.72 µM) | 6.2 (≈ 4.72 µM) | 210 |
| N=C(N)NCCC[C@H](NC(=O)[C@H](CCCNC(=N)N)NC(=O)[C@@H](N)CCCNC(=N)N)C(=O)N[C@H](C(=O)N[C@H](C(=O)N[C@H](C(=O)O)C(c1ccccc1)c1ccccc1)C(c1ccccc1)c1ccccc1)C(c1ccccc1)c1ccccc1 [IFX-002-1, NH2-Arg-Arg-Arg-Dip-Dip-Dip-OH] (H-RRR[Dip][Dip][Dip]-OH) | 3.1 (≈ 2.68 µM) | 3.1 (≈ 2.68 µM) | 25 (≈ 21.6 µM) | 6.2 (≈ 5.36 µM) | 265 |
| N=C(N)NCCC[C@H](NC(=O)[C@H](CCCNC(=N)N)NC(=O)[C@H](CCCNC(=N)N)NC(=O)[C@@H](N)CCCNC(=N)N)C(=O)N[C@@H](Cc1ccc2ccccc2c1)C(=O)N[C@@H](Cc1c[nH]c2ccccc12)C(=O)N[C@@H](Cc1ccc2ccccc2c1)C(=O)O [IFX-030-1, NH2-R-R-R-R-NaI-Trp-NaI-OH] (H-RRRR[2Nal]W[2Nal]-OH) | 6.2 (≈ 5.07 µM) | 6.2 (≈ 5.07 µM) | 25 (≈ 20.4 µM) | 12.5 (≈ 10.2 µM) | 430 |

— patent US20220289794A1, “SYNTHETIC ANTIMICROBIAL PEPTIDES” (priority 2019, published 2022)
